Results reported in patent US20190119282A1, “IMIDAZOPYRIDAZINES USEFUL AS INHIBITORS OF THE PAR-2 SIGNALING PATHWAY” (Vertex Pharmaceuticals Incorporated, priority 2013, published 2019).
One block for each molecule: values may come before it.

Columns and labels:
[1] = target: T1, PAR2 (HT-29 cells, SLIGKV activation) (Homo sapiens, UniProt P55085); test: Ca FLIPR TETRA assay, ANTAGONIST mode, stimulation with 8 μM SLIGKV; format: cell-based; details: HT-29 cells
T1 construct: host or cells: HT-29 cells
T1 sequence (P55085 26-397): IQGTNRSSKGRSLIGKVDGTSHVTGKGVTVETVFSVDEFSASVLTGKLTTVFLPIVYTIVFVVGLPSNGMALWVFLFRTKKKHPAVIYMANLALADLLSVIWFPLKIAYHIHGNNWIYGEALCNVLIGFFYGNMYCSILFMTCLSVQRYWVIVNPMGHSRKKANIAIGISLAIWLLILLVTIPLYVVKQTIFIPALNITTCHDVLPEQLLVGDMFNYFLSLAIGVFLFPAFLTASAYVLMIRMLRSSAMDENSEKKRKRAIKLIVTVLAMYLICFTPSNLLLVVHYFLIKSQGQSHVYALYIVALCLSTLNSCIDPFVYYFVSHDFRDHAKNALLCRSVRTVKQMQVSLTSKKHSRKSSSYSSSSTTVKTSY
Protocol: (§1) Example 60: Protocol for Testing PAR2 Compounds in ANTAGONIST Mode Using the Ca FLIPR^TETRA Assay (384 Well)
(§2) 23000 HT-29 cells (ATCC# HTB-38) were plated in 384-well black, transparent-flat bottom plates and incubated in 25 uL of 1% FBS/McCoy's media ON at 37° C. under an atmosphere of 5% CO2. The following day, 25 uL FLIPR calcium 5 Molecular Devices assay reagent (Cat: R-8186) was added. Plates were incubated at 37° C. and r. t. for 45 min and 15 min, respectively. Compounds dilutions were prepared in 100% DMSO using a Biomek FX and diluted 20-fold in HBSS and then 5.5 uL was added directly to the cells by the FLIPR^TETRA (10× dilution) using FLIPR Tetra Pipette tips, black, non-sterile, 384 Molecular Devices (Cat: 9000-0764).
(§3) A first read was performed to determine whether the test compounds on their own can activate Ca2+ responses.
(§4) The cells were incubated with the compounds for 30 min at r. t. and then read in ANTAGONIST mode in the same plate by stimulating with 6.2 uL of a fixed concentration of the activator: final concentrations: 8 μM SLIGKV, 1 U/mL Thrombin, 3.1 U/mL trypsin, or 0.6 μM UTP.

[2] = target: T2, PAR2 (HT-29 cells, trypsin activation) (Homo sapiens, UniProt P55085); test: Ca FLIPR TETRA assay, ANTAGONIST mode, stimulation with 3.1 U/mL trypsin; format: cell-based; details: HT-29 cells
T2 construct: host or cells: HT-29 cells
T2 sequence (P55085 26-397): T1 sequence (P55085 26-397)
Protocol: as §1, §2, §3, §4

[3] = tested on: Thrombin-stimulated Ca2+ response in HT-29 cells; test: Ca FLIPR TETRA assay, ANTAGONIST mode, stimulation with 1 U/mL Thrombin; format: cell-based, human; details: HT-29 cells, stimulation with 1 U/mL Thrombin
Protocol: as §1, §2, §3, §4

[4] = tested on: UTP-stimulated Ca2+ response in HT-29 cells; test: Ca FLIPR TETRA assay, ANTAGONIST mode, stimulation with 0.6 μM UTP; format: cell-based, human; details: for IC50: Homo sapiens, HT-29 cells, stimulation with 0.6 μM UTP
Protocol: as §1, §2, §3, §4

[5] = Table 8, reported compounds of WO2005/030773, JP2003286171, JP2004170323

Compound: CC(C)c1cc(Cl)nn2cc(C(=O)N3CCN(C(=O)C4(O)CCOCC4)CC3(C)C)nc12 [Compound I-588]
IC50 ([1]; Table 6, 8 μM SLIGKV): 37 µM
IC50 ([2]; Table 6, 3.1 U/mL trypsin): > 50 µM

Compound: CC(C)(C)OC(=O)NC1CCN(C(=O)c2cn3nc(-c4ccc(F)cc4)cc(C(F)(F)F)c3n2)CC1 [Compound I-74]
IC50 ([1]; stimulation with 8 μM SLIGKV): 0.48 µM
IC50 ([3]; Homo sapiens): > 50 µM
UTP % @ concentration ([4]; @ 50 (μM)): 62% @ 50

Compound: CC(C)c1cc(Cl)nn2cc(C(=O)N3CCN(C(=O)C4(O)CCC4)CC3(C)C)nc12 [Compound I-589]
IC50 ([1]; Table 6, 8 μM SLIGKV): 27 µM
IC50 ([2]; Table 6, 3.1 U/mL trypsin): > 50 µM

Compound: CN(C(=O)OC(C)(C)C)C1CCN(C(=O)c2cn3nc(-c4ccc(F)cc4)cc(C(F)(F)F)c3n2)CC1 [Compound I-77]
IC50 ([1]; stimulation with 8 μM SLIGKV): 0.68 µM
IC50 ([3]; Homo sapiens): > 50 µM
IC50 [4]: > 50 µM

Compound: COC(=O)C1CC(C(=O)N2CCN(C(=O)c3cn4nc(-c5ccc(F)cc5)cc(C(C)(C)C)c4n3)C(C)(C)C2)C1 (stereo not shown) [Compound I-538]
IC50 ([1]; antagonist mode, stimulation with 8 μM SLIGKV): 0.0008 µM
IC50 ([2]; antagonist mode, stimulation with 3.1 U/mL trypsin): 0.0009 µM
IC50 ([3]; antagonist mode): > 1 µM

Compound: CC(C)c1cc(-c2ccc(F)cc2)nn2cc(C(=O)N3CCCCC34COC4)nc12 [Compound I-587]
IC50 ([1]; Table 6, 8 μM SLIGKV): 25 µM
IC50 ([2]; Table 6, 3.1 U/mL trypsin): 19 µM

Compound: C[C@H]1CN(C(=O)c2cn3nc(-c4ccc(F)cc4)cc(C(F)(F)F)c3n2)CCN1C(=O)c1cc(-c2ccccc2)n[nH]1 [Compound I-87]
IC50 ([1]; stimulation with 8 μM SLIGKV): 0.021 µM
IC50 ([3]; Homo sapiens): > 50 µM
IC50 [4]: > 50 µM

Compound: Cc1cc(-c2ccc(F)cc2)nn2cc(C(=O)N3CCCC4(COC4)C3)nc12 [Compound I-586]
IC50 ([1]; Table 6, 8 μM SLIGKV): 13 µM
IC50 ([2]; Table 6, 3.1 U/mL trypsin): 19 µM

Compound: CC(C)c1cc(-c2ccc(F)cc2)nn2cc(C(=O)N3CCNC(=O)C3)nc12 [Compound I-591]
IC50 ([1]; Table 6, 8 μM SLIGKV): 17 µM
IC50 ([2]; Table 6, 3.1 U/mL trypsin): 41 µM

Compound: O=C1NCCN2CCN(C(=O)c3cn4nc(-c5ccc(F)cc5)cc(C(F)(F)F)c4n3)CC12 (stereo not shown) [Compound I-58]
IC50 ([1]; stimulation with 8 μM SLIGKV): 1.3 µM
IC50 ([3]; Homo sapiens): > 50 µM
IC50 [4]: > 50 µM

Compound: C[C@H]1CN(C(=O)c2cn3nc(-c4ccc(F)cc4)cc(C(F)(F)F)c3n2)CCN1C(=O)c1ncc[nH]1 [Compound I-88]
IC50 ([1]; stimulation with 8 μM SLIGKV): 0.68 µM
IC50 ([3]; Homo sapiens): > 50 µM
IC50 [4]: > 50 µM

Results, then the molecule that gave them:

IC50 [1, 5]: > 50 µM
IC50 [2, 5]: > 50 µM
Compound: CC1CCCCN1C(=O)c1cc2nc(-c3ccc(Cl)cc3)cc(C(F)(F)F)n2n1 (stereo not shown) [Compound P-598, reference compound]

IC50 [1, 5]: 0.37 µM
IC50 [2, 5]: > 50 µM
Compound: O=C(c1ccccc1)N1CCN(C(=O)c2cc3nc(-c4ccc(Cl)cc4)cc(C(F)(F)F)n3n2)CC1 [Compound P-606, reference compound]

IC50 [1, 5]: 17.4 µM
IC50 [2, 5]: 27 µM
Compound: CN(CCO)C(=O)c1cc2nc(-c3ccc(Cl)cc3)cc(C(F)(F)F)n2n1 [Compound P-597, reference compound]

IC50 [1, 5]: 4.67 µM
IC50 [2, 5]: 28 µM
Compound: O=C(c1cc2nc(-c3ccccc3)cc(C(F)(F)F)n2n1)N1CCCCC1 [Compound P-594, reference compound]

IC50 [1, 5]: 9.81 µM
IC50 [2, 5]: > 50 µM
Compound: O=C(c1cc2nc(-c3ccc(Cl)cc3)cc(C(F)(F)F)n2n1)N1CCCCCC1 [Compound P-599, reference compound]

IC50 [1, 5]: 10.8 µM
IC50 [2, 5]: > 50 µM
Compound: O=C(c1ccccc1)N1CCN(C(=O)c2cc3nc(-c4ccccc4)cc(C(F)(F)F)n3n2)CC1 [Compound P-596, reference compound]

IC50 [1, 5]: 0.11 µM
IC50 [2, 5]: 1.25 µM
Compound: O=C(O)C1CCCCN(C(=O)c2cc3nc(-c4ccc(Cl)cc4)cc(C(F)(F)F)n3n2)C1 (stereo not shown) [Compound P-611, reference compound]

IC50 [1, 5]: 2.8 µM
IC50 [2, 5]: 14 µM
Compound: O=C(c1cc2nc(-c3ccccc3)cc(C(F)(F)F)n2n1)N1CCC(O)CC1 [Compound P-609, reference compound]

IC50 [1, 5]: 0.061 µM
IC50 [2, 5]: 0.88 µM
Compound: O=C(c1cc2nc(-c3ccccc3)cc(C(F)(F)F)n2n1)N1CCCCCC1 [Compound P-601, reference compound]
